Molecules are shown by their SMILES. “Also recorded” adds a separate entry of the source.

The target of assay [1] is T1, recombinant human 11β-HSD1 (Homo sapiens, UniProt P28845).
T1 construct: The gene encoding 11β-HSD1 (Genebank: NC_018912.2) was cloned into the pET-28a vector (Novagen); hexa-histidine (C, cleaved yes); made in house; host or cells: E. coli BL21(DE3)
Kind of assay: Binding affinity assay using microscale thermophoresis (MST). The note with it: labelled 11β-HSD1 50 nM, 22 °C, means ± SD for three experiments; for Kd: read-out: Kd (dissociation constant with 11β-HSD1). The text has this: Measuring the thermophoretic behaviour of a protein in the presence of differing ligand concentrations by MST allows quantitative analysis of molecular interactions in solution. The MST technique has previously been used to investigate protein-protein, small organic molecule-protein and antibody-protein interactions.
(§1) The gene encoding 11β-HSD1 (Genebank: NC_018912.2) was cloned into the pET-28a vector (Novagen). After the recombinant plasmids were verified by sequencing, the plasmid was transformed into E. coli BL21(DE3) (Invitrogen) which were grown in LB medium at 37 °C to an OD600 (0.8–1.0) and induced by 0.4 mM isopropyl -D-thiogalactopyranoside (IPTG) at 20 °C for 16 hours. Bacterial cells were lysed by ultrasonification on ice in a buffer containing 20 mM Tris, pH 8.5, 200 mM NaCl, 5 mM mercaptoethanol, 0.1% TritonX-100, and 5% glycerol. Soluble C-terminally hexa-histidine tagged 11β-HSD1 was bound to Ni-agarose affinity resin (Qiagen), washed with a buffer containing 20 mM Tris, pH 8.5, 200 mM NaCl, and 10 mM imidazole, and eluted with a buffer containing 20 mM Tris, pH 8.8, 250 mM NaCl, and 150 mM imidazole. Thrombin (Roche) was added at one unit per 4 mg protein to the elute, which was then dialyzed against 20 mM Tris pH 8.5 and 100 mM NaCl at room temperature for overnight digestion. After thrombin digestion to remove the hexahistidine tag, contaminant proteins were removed by loading the elute onto a second cobalt affinity column equilibrated in the dialyzing buffer and collecting the flow-through. The protein was further purified with anion exchange chromatography, using a linear gradient of 10 mM to 1 M NaCl concentration and size exclusion chromatography at 20 mM Tris pH 8.5 and 200 mM NaCl[22][23].
The ability of the purified 11β-HSD1 to bind with potential ligands was analyzed using MST. The protein was labeled with the Monolith NT™ Protein Labeling Kit RED (Cat#L001) according to the supplied labeling protocol. Labelled 11β-HSD1 was kept constant at 50 nM, while all samples tested were diluted in a 20 mM HEPES (pH 7.5) and 0.05 (v/v)% Tween-20. Compounds were diluted in 12 dilution steps covering the range of appropriate concentrations. After 10 min incubation at room temperature, samples were loaded into Monolith^TM standard-treated capillaries and the thermophoresis was measured at 22 °C after 30 min incubation on a Monolith NT.115 instrument (NanoTemper Technologies, München, Germany). Laser power was set to 40% using 30 seconds on-time and the LED power was set to 100%. The dissociation constrant Kd values were fitted by using the NTAnalysis software (NanoTemper Technologies, München, Germany).
In general terms: MST reads how a fluorescent partner responds to local heating, with and without ligand.

Assay [2] deals with T1, recombinant human 11β-HSD1. Nature of the assay: 11β-HSD1 enzyme inhibition assay (cortisone to cortisol, HPLC-MS/MS). Particulars: cortisone 50 μM, NADPH 1 mM, 37 °C, 30 min, read-out: IC50 (inhibitory activities against 11β-HSD1). It counts as biochemical. The method, then:
To explore the 11β-HSD1 inhibitory activities of compounds 1–8 in vitro, recombinant human 11β-HSD1 protein was incubated with various concentrations of compounds and the enzymatic activity (cortisone to cortisol) was tested using HPLC-MS/MS (Fig. 3).
as §1
The inhibitory effects of 1–8 on 11β-HSD1 were measured using recombinant human 11β-HSD1 protein through HPLC-MS/MS method. Briefly, 2.5 μL recombinant 11β-HSD1 protein (0.512 mg protein/ml) was added to 100 μL buffer (100 mM KCl, 20 mM NaCl, 20 mM Hepes, pH 7.5) containing NADPH (1 mM) and cortisone (50 μM) with or without various concentrations of compounds. The reactants were incubated at 37 °C for 30 min. After extraction with dichloromethane, evaporation and resolvation with 200 μL methanol, cortisone and cortisol were measured by HPLC-MS/MS and multi-reactions monitoring (MRM) technology. Detection was performed using a Shimadzu LC-20AD HPLC system equipped with an SHIMADZU VP-ODS 150 L × 4.6 mm column connected to a API 4000 LC/MS/MS system. Samples were analyzed after injection and equilibrated with 45% solution A (0.1% formic acid in water) and 55% solution B (Methanol) under isocratic elution with the flow rate of 0.8 mL/min. The HPLC eluent were tested by HPLC-MS/MS using collision energy 33 eV (cortisol) and 30 eV […] in positive ion mode. Analyst quantitation optimization wizard was used to optimize the collision energies and other electric lens settings for MRM detections. The inhibition rates were calculated using the concentration ratios of cortisone and cortisol in tubes with or without various compounds.

Another assay concerns 3T3-L1 preadipocytes. Kind of assay: Lipid accumulation in differentiation-induced 3T3-L1 preadipocytes (Oil Red O staining). Particulars: 3T3-L1 preadipocytes induced to differentiate, 50 μM compound, 6 days. Type of assay: cell-based. The method, then: It was reported that 11β-HSD1 is highly expressed in normal liver[18] and stimulates pre-adipocyte differentiation. As a result, many 11β-HSD1 inhibitors were investigated to prevent adipogenesis. To further examine the 11β-HSD1 inhibitory effects of compound 3, we examined the anti-adipogenic effect of compound 3 during the differentiation of 3T3-L1 cells.
(§2) 3T3-L1 preadipocytes were purchased from Shanghai Institute of Cell Biology, Chinese Academy of Sciences. Both of them were cultured in DMEM medium (Gibco, USA) containing 10% FBS, penicillin (100 U/mL), streptomycin […] in 5% CO2 at 37 °C. 3T3-L1 preadipocytes were induced to differentiate as previously described. In short, differentiation was induced by adding 0.5 mmol/L 3-isobutyl-1-methyxanthine (Sigma), 10 μg/mL insulin (Sigma), and […] dexamethasone (Sigma) to the medium. After 48 h incubation (d2), the medium was replaced with DMEM containing 10 μg/mL insulin and 50 μM compound 3. On d4, the medium was replaced with DMEM containing compound 3, and then changed back to the same medium every on d6.
Preadipocytes 3T3-L1 were induced to differentiate with or without compounds 3 for 6 days, and then washed twice with PBS, fixed in 3.7% formaldehyde for 1 h and stained with Oil Red O for another 1 h at room temperature. Cells were then washed several times with PBS, and photographed by a light microscope (Olympus, Japan).

In assay [3] the test system is 11β-HSD1 expression in 3T3-L1 cells. Kind of assay: 11β-HSD1 expression in 3T3-L1 cells (western blot). Type of assay: cell-based. The note with it: differentiation-induced 3T3-L1 preadipocytes, β-Actin loading control. The method, then:
Figure 5 Effects of compound 3 on lipid accumulation and 11β-HSD1 expression in 3T3-L1 cells. Preadipocytes were induced to differentiate in the presence or absence of compound 3, which was then stained with Oil Red O and photographed (40×). 11β-HSD1 expressions were determined by western blot. β-Actin was used as a loading control.
as §2
Cells were treated and then lysed in a radio immune-precipitation assay buffer. Protein concentrations were determined using a BCA protein assay kit (Byontime, Beijing, China) and equalized before loading. […]
On the technique in general: Immunoblotting shows a protein as a band on a membrane.

T1 sequence (P28845 whole entry): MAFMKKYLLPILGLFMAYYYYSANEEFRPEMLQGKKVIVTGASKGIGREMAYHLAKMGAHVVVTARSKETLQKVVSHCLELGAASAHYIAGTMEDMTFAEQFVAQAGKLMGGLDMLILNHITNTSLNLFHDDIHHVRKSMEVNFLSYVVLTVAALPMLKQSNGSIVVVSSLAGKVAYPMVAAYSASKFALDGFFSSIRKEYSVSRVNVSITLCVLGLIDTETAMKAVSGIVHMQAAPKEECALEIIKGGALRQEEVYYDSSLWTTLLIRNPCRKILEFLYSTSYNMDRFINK

The term Kd denotes the equilibrium constant for the complex coming apart. A word on the IC50: it is the point on the concentration scale where inhibition reaches its midpoint. As to `CN1C(=O)c2ccccc2NC(=O)C12OC2c1cccc(O)c1` (single isomer, unassigned; (+)) [Compound 5, (+)-cyclopenol], in assay [1], the Kd came out at 421 ± 12.1 µM. For the same molecule, the IC50 in assay [2] is 45.5 ± 7.82 µM.

`CC(=O)c1cc(C)c2c(c1O)C[C@H](C)[C@@]1(C[C@@H](O)C[C@@H](C)O1)O2` [Compound 1, Penicophenone A]: the “Kd (dissociation constant with 11β-HSD1)” value in assay [1] is “either no binding or no statistically significant binding was detected; also recorded: n.b.b”. In addition, in assay [2], the IC50 is over 200 µM.

As for `COc1cc(Cc2c(O)c(C)cc(C(C)=O)c2O)c(OC)cc1O` [Compound 2, Penicophenone B], the “Kd (dissociation constant with 11β-HSD1)” value in assay [1] is “either no binding or no statistically significant binding was detected and n.b”. In addition, in assay [2], the IC50 is over 200 µM.

For `CN1C(=O)c2ccccc2NC(=O)[C@@H](Cc2ccccc2)N(C)C(=O)c2ccccc2NC(=O)[C@H]1Cc1ccccc1` [Compound 3, Penicopeptide A], the lipid droplet accumulation entry in the assay on 3T3-L1 preadipocytes is “decreased the lipid droplet accumulation”. The Kd in assay [1] is 82.1 ± 5.01 µM. Also, the 11β-HSD1 expression result in assay [3] was “inhibition of 11β-HSD1 expression”. In assay [2], the IC50 stood at 9.07 ± 0.61 µM.

`CN1C(=O)c2ccccc2NC(=O)/C1=C/c1ccccc1` [Compound 4, 3-benzylidene-3,4-dihydro-4-methyl-lH-l,4-benzodiazepine-2,5-dione]: in assay [1], the “Kd (dissociation constant with 11β-HSD1)” value was “either no binding or no statistically significant binding was detected and n.b”. Further, the IC50 in assay [2] was over 200 µM.

In the case of `CN1C(=O)c2ccccc2NC(=O)C12OC2c1ccccc1` (centres unmarked) [Compound 6, cyclopenin], the Kd in assay [1] came to 513 ± 10.6 µM.

Take `CC(C)=CCC[C@]1(C)[C@@H](O)CC[C@@]2(C)[C@H]1CC[C@H]1Cc3c([nH]c4ccccc34)[C@@]12C` [Compound 7, emindole SB]: the “Kd (dissociation constant with 11β-HSD1)” value in assay [1] was “either no binding or no statistically significant binding was detected and n.b”. In addition, the concentration for half-maximal inhibition (IC50) in assay [2] was over 200 µM.

Consider `CC(=O)c1cc(C)c(O)c(C[C@]23Cc4c(O)c(C(C)=O)cc(C)c4O[C@@]2(O)[C@@H](C)OC3=O)c1O` [Compound 8, penilactones A], for which the “Kd (dissociation constant with 11β-HSD1)” value in assay [1] was “either no binding or no statistically significant binding was detected and n.b”. The half-inhibitory concentration (IC50) in assay [2] was over 200 µM.

Values taken from PMC4872216, “Novel small molecule 11β-HSD1 inhibitor from the endophytic fungus Penicillium commune” (Scientific Reports, 2016).
